Test results taken from patent US9808444B2 (BioHealthonomics Inc., priority 2012, dated 2017).

Assays:
migraine attacks [1] = conditions: cited from earlier work
[2] = test system: headache / migraine attack; conditions: cited from earlier work
migraine attacks [3] = conditions: subcutaneous 1-10 ng twice a week vs oral sodium valproate 500 mg daily, cited from earlier work
migraine attacks [4] = conditions: subcutaneous, twice weekly, 1 μg (0.1 mL) increasing to 10 μg (1.0 mL) over 12 weeks; cited from earlier work
migraine headaches = conditions: one subject, subcutaneous, Table 5 regimen
[5] = doses of 1 to 3 ng twice a week, P<0.0001
[6] = migraine subjects, intravenous, 0.5 mg/kg per minute for 20 min

CNCCc1c[nH]cn1 [N^α-methylhistamine]
adverse side effects (migraine attacks [1]; doses greater than 3 ng): intense headache | duration of migraine attacks (migraine attacks [1]; [5]): significantly reduced | frequency of migraine attacks (migraine attacks [1]; [5]): significantly reduced | intensity of migraine attacks (migraine attacks [1]; [5]): significantly reduced | need for rescue analgesics (migraine attacks [1]; [5]): significantly reduced

NCCc1c[nH]cn1 [histamine, 2-(1H-imidazol-4-yl)ethanamine]
side effect after the infusion [2, 6]: delayed migraine attack | side effect during the infusion [2, 6]: immediate headache | MIDAS versus sodium valproate (migraine attacks [3]): No difference | frequency of attacks versus sodium valproate (migraine attacks [3]): No difference | analgesic intake versus sodium valproate (migraine attacks [3]; weeks 4, 8, 12, P<0.001): significantly greater reduction | intensity of migraine attacks versus sodium valproate (migraine attacks [3]; weeks 4, 8, 12, P<0.001): significantly greater reduction | decrease in length of migraine attacks (migraine attacks [4]): 45% | decrease in pain intensity (migraine attacks [4]): 51% | decrease in painkiller use (migraine attacks [4]): 52% | reduction of headache frequency (migraine attacks [4]): 50% | intensity of migraines (migraine headaches): drastically reduced | quality of life (migraine headaches): Drastically improved | side effects associated with the regimen (migraine headaches): no histamine-induced headaches | frequency of migraines after the dosing regimen (migraine headaches; before the regimen about 3-5 migraines per week): ~1 migraine every 2 months

COc1ccc(CN(CCN(C)C)c2ccccn2)cc1 [mepyramine]
effect of pre-treatment on histamine-induced headache and delayed migraine attack ([2]; pre-treatment before intravenous histamine in migraine subjects): abolished
